Assay results: article PMC11822212, “High-throughput screening identifies Aurora kinase B as a critical therapeutic target for Merkel cell carcinoma” (Nature Communications, 2025)
Structures can show the parent of a compound that is named as a salt. Where two headings read alike, the source gives them in different places.

How the values were obtained:
[1] = tested on: NIH-3T3 cells; assay: qHTS cell viability (CellTiter-Glo, 72 h; primary screen), control cell line; type: cell-based, mouse
[2] = tested on: WAGA cells (VP-MCC); assay: qHTS cell viability (CellTiter-Glo, 72 h; primary and follow-up small molecule screen); type: cell-based, human
[3] = tested on: CRL-7250 cells; assay: qHTS cell viability (CellTiter-Glo, 72 h; primary screen), control cell line; type: cell-based
[4] = tested on: control cell lines (HACAT, HEK293T, CRL-7250, NIH-3T3); assay: qHTS cell viability, control cell lines as a group (mean AUC, Control.avg); type: cell-based
[5] = tested on: VN-MCC cell lines (MCC13, MCC26, UISO); assay: qHTS cell viability, VN-MCC cell lines as a group (mean AUC, VN.MCC.avg); type: cell-based, human
[6] = tested on: MKL-2 cells (VP-MCC); assay: qHTS cell viability (CellTiter-Glo, 72 h; primary and follow-up small molecule screen); type: cell-based, human
[7] = tested on: HACAT cells; assay: qHTS cell viability (CellTiter-Glo, 72 h; primary screen), control cell line; type: cell-based, human
[8] = tested on: VP-MCC cell lines (WAGA, MKL-1, MKL-2); assay: qHTS cell viability, VP-MCC cell lines as a group (mean AUC, VP.MCC.avg); type: cell-based, human
[9] = tested on: six MCC cell lines and four control cell lines; assay: qHTS cell viability, all 10 cell lines screened; type: cell-based
[10] = tested on: HEK293T cells; assay: qHTS cell viability (CellTiter-Glo, 72 h; primary screen), control cell line; type: cell-based, human
[11] = tested on: UISO cells (VN-MCC); assay: qHTS cell viability (CellTiter-Glo, 72 h; primary and follow-up small molecule screen); type: cell-based, human
[12] = tested on: MCC13 cells (VN-MCC); assay: as above; type: cell-based, human
[13] = tested on: MCC cell lines (WAGA, MKL-1, MKL-2, MCC13, MCC26, UISO); assay: qHTS cell viability, all six MCC cell lines as a group (mean AUC, MCC.avg); type: cell-based, human
[14] = tested on: MKL-1 cells (VP-MCC); assay: qHTS cell viability (CellTiter-Glo, 72 h; primary and follow-up small molecule screen); type: cell-based, human
[15] = tested on: MCC26 cells (VN-MCC); assay: as above; type: cell-based, human
[16] = NPC library, qHTS dose-response AUC, NIH3T3 control
[17] = NPC library, qHTS dose-response AUC, WAGA
[18] = NPC library, qHTS dose-response AUC, CRL7250 control
[19] = NPC library, mean AUC of control cell lines
[20] = NPC library, mean AUC of VN-MCC cell lines
[21] = NPC library, therapeutic window: Control avg AUC minus VN-MCC avg AUC
[22] = NPC library, qHTS dose-response AUC, MKL2
[23] = NPC library, qHTS dose-response AUC, HACAT control
[24] = NPC library, mean AUC of VP-MCC cell lines
[25] = NPC library, therapeutic window: Control avg AUC minus VP-MCC avg AUC
[26] = NPC library, therapeutic window: Control avg AUC minus MCC avg AUC
[27] = NPC library, qHTS dose-response AUC, HEK293T control
[28] = NPC library, qHTS dose-response AUC, UISO
[29] = NPC library, qHTS dose-response AUC, MCC13
[30] = NPC library, mean AUC of six MCC cell lines
[31] = NPC library, qHTS dose-response AUC, MKL1
[32] = NPC library, qHTS dose-response AUC, MCC26
[33] = MIPE library, 11-point DRC, control cell line, sheet S2E
[34] = MIPE library, 11-point DRC, sheet S2E

Structure (SMILES) | NIH3T3_AUC [1, 16] | WAGA_AUC [2, 17] | CRL7250_AUC [3, 18] | Control_Avg_AUC [4, 19] | VN-MCC_Avg_AUC [5, 20] | Control-VN-MCC [5, 21] | MKL2_AUC [6, 22] | HACAT_AUC [7, 23] | VP-MCC_Avg_AUC [8, 24] | Control-VP-MCC [8, 25] | Control-MCC [9, 26] | HEK293T_AUC [10, 27] | UISO_AUC [11, 28] | MCC13_AUC [12, 29] | MCC_Avg_AUC [13, 30] | MKL1_AUC [14, 31] | MCC26_AUC [15, 32] | Control-VN-MCC [5] | Control-VP-MCC [8] | Control-MCC [9] | also measured
[H]/N=C(/NCCCCC)N/N=C/c1c[nH]c2ccc(OC)cc12 [Tegaserod] | 444.55 | 279.713 | 432.653 | 420.238 | 434.493 | -14.2555 | 260.213 | 397.896 | 263.329 | 156.909 | 71.3268 | 405.853 | 401.587 | 473.827 | 348.911 | 250.061 | 428.067 | – | – | – | –
CC(C)(C)OC(=O)Nc1ccc(-c2cc(C(=O)NCCCCCCC(=O)NO)no2)cc1 [ISOX] | – | – | – | – | – | – | – | – | – | – | – | – | – | – | – | – | – | – | – | – | NIH3T3_AUC [1, 33]: 388.752; WAGA_AUC [2, 34]: 354.914; CRL7250_AUC [3, 33]: 411.627; Control_Avg_AUC ([4]; MIPE library, mean AUC of control cell lines, sheet S2E): 405.698; Control-VN-MCC ([5]; MIPE library, Control AUC minus VN-MCC AUC (therapeutic window), sheet S2E): -20.9846; VN-MCC_Avg_AUC ([5]; MIPE library, mean AUC of VN-MCC cell lines, sheet S2E): 426.683; MKL2_AUC [6, 34]: 356.229; HACAT_AUC [7, 33]: 439.928; Control-VP-MCC ([8]; MIPE library, Control AUC minus VP-MCC AUC (therapeutic window), sheet S2E): 51.9911; VP-MCC_Avg_AUC ([8]; MIPE library, mean AUC of VP-MCC cell lines, sheet S2E): 353.707; Control-MCC ([9]; MIPE library, Control AUC minus MCC AUC (therapeutic window), sheet S2E): 15.5032; HEK293T_AUC [10, 33]: 382.485; UISO_AUC [11, 34]: 418.415; MCC13_AUC [12, 34]: 413.98; MCC_Avg_AUC ([13]; MIPE library, mean AUC of six MCC cell lines, sheet S2E): 390.195; MKL1_AUC [14, 34]: 349.979; MCC26_AUC [15, 34]: 447.653
CC[N+]1(CC)CCC(=C(c2ccccc2)c2ccccc2)C1C (stereo not drawn) [Prifinium bromide] | 466.796 | 419.066 | 489.513 | 468.3 | 472.229 | -3.929 | 411.638 | 452.968 | 414.775 | 53.5255 | 24.7984 | 463.923 | 446.738 | 477.436 | 443.502 | 413.62 | 492.512 | – | – | – | –
C[C@H](CN1CCOCC1)C(C(=O)N1CCCC1)(c1ccccc1)c1ccccc1.O=C(O)C(O)C(O)C(=O)O [Dextromoramide tartrate] | – | – | – | – | – | – | – | – | – | – | – | – | – | – | – | – | – | 17.1819 | 71.9259 | 44.5539 | NIH3T3_AUC [1]: 477.478; WAGA_AUC [2]: 399.942; CRL7250_AUC [3]: 471.896; Control_Avg_AUC [4]: 462.795; VN-MCC_Avg_AUC [5]: 445.614; MKL2_AUC [6]: 383.165; HACAT_AUC [7]: 472.266; VP-MCC_Avg_AUC [8]: 390.87; HEK293T_AUC [10]: 429.542; UISO_AUC [11]: 445.259; MCC13_AUC [12]: 446.289; MCC_Avg_AUC [13]: 418.242; MKL1_AUC [14]: 389.502; MCC26_AUC [15]: 445.292
CN1CC[C@]23c4c5ccc(O)c4O[C@H]2[C@@H](O)C=C[C@H]3[C@H]1C5 [Morphine sulfate pentahydrate] | – | – | – | – | – | – | – | – | – | – | – | – | – | – | – | – | – | 52.1622 | 53.1007 | 52.6314 | Control-MCC [13]: 52.6315
COc1cc2nc(N3CCN(C(=O)C4CCCO4)CC3)nc(N)c2cc1OC (stereo not drawn) [Terazosin hydrochloride] | – | – | – | – | – | – | – | – | – | – | – | – | – | – | – | – | – | 50.4982 | 51.2361 | 50.8672 | –
